Experimental findings from ChEMBL document CHEMBL5523722, “Design, Synthesis, and Activity Evaluation of Novel Benzazole Bifunctional Antifungal Inhibitors with an LDH Carrier” (J Med Chem, 2024) are described below.

pIC50: −log10 of the molar value. ≈ marks a conversion by molar mass, not a printed value.

For one test, the system named is Cryptococcus neoformans. Put plainly: microbe, parasite or virus in culture. Particulars: ZKCC 2209, 64 h.
Test [1] deals with Candida albicans. Put plainly: microbe, parasite or virus in culture. The settings on record: ATCC SC5314, 64 h.
Description: Antifungal activity against Candida albicans ATCC SC5314 assessed as inhibition of fungal growth incubated for 64 hrs by liquid medium dilution method
The subject of another test is Candida tropicalis. Briefly: microbe, parasite or virus in culture. Particulars: ATCC 1369, 64 h.
Another test has as its system Nakaseomyces glabratus. Put plainly: microbe, parasite or virus in culture. The settings on record: 64 h.
The subject of a further test is Aspergillus fumigatus. Put plainly: microbe, parasite or virus in culture. The settings on record: KM8001, 64 h.
The test system of test [2] is Candida albicans. Put plainly: microbe, parasite or virus in culture. Particulars: Candida albicans, 904, 64 h.
Description: Antifungal activity against fluconazole-resistant Candida albicans 904 assessed as inhibition of fungal growth incubated for 64 hrs by liquid medium dilution method
Test [3] relates to Candida albicans. Briefly: microbe, parasite or virus in culture. Particulars: Candida albicans, 632, 64 h.
Description: Antifungal activity against fluconazole-resistant Candida albicans 632 assessed as inhibition of fungal growth incubated for 64 hrs by liquid medium dilution method
The subject of test [4] is Candida albicans. Briefly: microbe, parasite or virus in culture. Particulars: CaR, 64 h.
Description: Antifungal activity against fluconazole-resistant Candida albicans CaR assessed as inhibition of fungal growth incubated for 64 hrs by liquid medium dilution method
The subject of test [5] is Candida albicans. Briefly: microbe, parasite or virus in culture. The settings on record: 17#, 64 h.
Description: Antifungal activity against fluconazole-resistant Candida albicans 17# assessed as inhibition of fungal growth incubated for 64 hrs by liquid medium dilution method
The test system of test [6] is Candida albicans. Briefly: microbe, parasite or virus in culture. Particulars: Candida albicans, 901, 64 h.
Description: Antifungal activity against fluconazole-resistant Candida albicans 901 assessed as inhibition of fungal growth incubated for 64 hrs by liquid medium dilution method
The target of test [7] is Lanosterol 14-alpha demethylase (Candida albicans (strain SC5314 / ATCC MYA-2876) (Yeast), UniProt P10613).
Lanosterol 14-alpha demethylase, sequence (P10613 whole entry): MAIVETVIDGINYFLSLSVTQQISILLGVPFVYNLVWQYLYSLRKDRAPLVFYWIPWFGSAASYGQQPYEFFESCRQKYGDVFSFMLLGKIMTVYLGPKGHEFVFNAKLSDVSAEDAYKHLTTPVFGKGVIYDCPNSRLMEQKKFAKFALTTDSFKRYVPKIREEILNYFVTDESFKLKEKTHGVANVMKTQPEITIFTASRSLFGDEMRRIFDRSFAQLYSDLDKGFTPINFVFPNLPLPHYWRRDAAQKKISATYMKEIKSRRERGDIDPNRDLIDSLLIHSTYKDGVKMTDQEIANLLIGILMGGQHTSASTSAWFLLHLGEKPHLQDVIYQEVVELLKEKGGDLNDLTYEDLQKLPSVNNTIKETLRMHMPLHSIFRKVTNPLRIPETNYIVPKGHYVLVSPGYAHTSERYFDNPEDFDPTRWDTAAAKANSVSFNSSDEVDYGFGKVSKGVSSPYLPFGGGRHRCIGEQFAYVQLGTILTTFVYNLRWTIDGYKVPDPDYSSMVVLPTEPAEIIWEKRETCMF
Description: Inhibition of candida albicans CYP51 14alpha demethylase activity incubated for 30 mins by HPLC analysis

Description for Aspergillus fumigatus: Antifungal activity against Aspergillus fumigatus KM8001 assessed as inhibition of fungal growth incubated for 64 hrs by liquid medium dilution method
Description for Candida tropicalis: Antifungal activity against Candida tropicalis ATCC 1369 assessed as inhibition of fungal growth incubated for 64 hrs by liquid medium dilution method
Description for Cryptococcus neoformans: Antifungal activity against Cryptococcus neoformans ZKCC 2209 assessed as inhibition of fungal growth incubated for 64 hrs by liquid medium dilution method
Description for Nakaseomyces glabratus: Antifungal activity against Candida glabrata assessed as inhibition of fungal growth incubated for 64 hrs by liquid medium dilution method

As for `Cc1c(CN2CCC(CNCC(O)(Cn3cncn3)c3ccc(Cl)cc3Cl)CC2)cccc1-c1ccccc1` (centres undefined), the MIC50 with Cryptococcus neoformans is 2 µg/mL (≈ 3.54 µM); in the test on Candida albicans [1] it was 2 µg/mL (≈ 3.54 µM); in the test on Candida tropicalis, 2 µg/mL (≈ 3.54 µM); with Nakaseomyces glabratus, 1 µg/mL (≈ 1.77 µM); in the test with Aspergillus fumigatus, at least 8 µg/mL.
As to `Cc1c(CN2CCCC(C(=O)NCC(O)(Cn3ccnc3)c3ccc(Cl)cc3)C2)cccc1-c1ccccc1` (centres undefined), the MIC50 is 4 µg/mL (≈ 7.36 µM) in the test on Cryptococcus neoformans; 1 µg/mL (≈ 1.84 µM) against Candida albicans [1]; 2 µg/mL (≈ 3.68 µM) with Candida tropicalis; 1 µg/mL (≈ 1.84 µM) in the test on Nakaseomyces glabratus; at least 8 µg/mL with Aspergillus fumigatus.
With `Cc1c(CN2CCC(CNCC(O)(Cn3ccnc3)c3ccc(Cl)cc3)CC2)cccc1-c1ccccc1` (centres undefined), the MIC50 is 2 µg/mL (≈ 3.78 µM) against Cryptococcus neoformans; 1 µg/mL (≈ 1.89 µM) against Candida albicans [1]; 1 µg/mL (≈ 1.89 µM) in the test with Candida tropicalis; 0.5 µg/mL (≈ 0.945 µM) in the test on Nakaseomyces glabratus; at least 8 µg/mL against Aspergillus fumigatus.
Consider `CC(=O)N1CCN(c2ccc(OCC3COC(Cn4ccnc4)(c4ccc(Cl)cc4Cl)O3)cc2)CC1` (centres undefined) [KETOCONAZOLE], for which the MIC50 against Cryptococcus neoformans was 1 µg/mL (≈ 1.88 µM); against Candida albicans [2], at least 8 µg/mL; against Candida albicans [3], at least 8 µg/mL; in the test with Candida albicans [1], 0.25 µg/mL (≈ 0.47 µM); against Candida albicans [4], 4 µg/mL (≈ 7.53 µM); in the test on Candida tropicalis, 0.25 µg/mL (≈ 0.47 µM). Further, the MIC50 against Candida albicans [5] stood at 2 µg/mL (≈ 3.76 µM); in the test on Nakaseomyces glabratus, 0.5 µg/mL (≈ 0.941 µM); against Candida albicans [6], 4 µg/mL (≈ 7.53 µM); in the test on Aspergillus fumigatus, 4 µg/mL (≈ 7.53 µM).
Take `Cc1c(CN2CCCC(C(=O)NCC(O)(Cn3ccnc3)c3ccc(Cl)cc3Cl)C2)cccc1-c1ccccc1` (centres undefined): the MIC50 against Cryptococcus neoformans is at least 8 µg/mL; in the test with Candida albicans [1], 0.5 µg/mL (≈ 0.866 µM); in the test on Candida tropicalis it was 0.5 µg/mL (≈ 0.866 µM); in the test with Nakaseomyces glabratus it was 1 µg/mL (≈ 1.73 µM); against Aspergillus fumigatus, at least 8 µg/mL.
For the compound `Cc1c(CN2CCCC(C(=O)NCC(Cc3ccccc3)Cn3ccnc3)C2)cccc1-c1ccccc1` (centres undefined), the MIC50 against Cryptococcus neoformans came out at 2 µg/mL (≈ 3.95 µM); against Candida albicans [1] it was 0.5 µg/mL (≈ 0.987 µM); in the test with Candida tropicalis, 1 µg/mL (≈ 1.97 µM); against Nakaseomyces glabratus, 2 µg/mL (≈ 3.95 µM); in the test on Aspergillus fumigatus it was 4 µg/mL (≈ 7.89 µM).
On to `Cc1c(CN2CCCC(C(=O)NCC(Cc3ccccc3)Cn3cncn3)C2)cccc1-c1ccccc1` (centres undefined), for which the MIC50 was at least 8 µg/mL against Cryptococcus neoformans; 0.25 µg/mL (≈ 0.492 µM) in the test on Candida albicans [1]; 0.5 µg/mL (≈ 0.985 µM) against Candida tropicalis; 0.5 µg/mL (≈ 0.985 µM) in the test with Nakaseomyces glabratus; at least 8 µg/mL in the test with Aspergillus fumigatus.
Consider `O=C(NCC(Cc1ccccc1)Cn1ccnc1)C1CCCN(Cc2ccc(-c3ccccc3)cc2)C1` (centres undefined), for which the MIC50 with Cryptococcus neoformans is 4 µg/mL (≈ 8.12 µM); with Candida albicans [1] it was 1 µg/mL (≈ 2.03 µM); against Candida tropicalis it was 2 µg/mL (≈ 4.06 µM); in the test with Nakaseomyces glabratus, 0.5 µg/mL (≈ 1.01 µM); in the test on Aspergillus fumigatus, at least 8 µg/mL.
In general, pIC50 refers to the IC50 on a negative log10 scale, so that one unit is a factor of ten. Lower therefore signals a large IC50. `OC(Cn1cncn1)(Cn1cncn1)c1ccc(F)cc1F` [FLUCONAZOLE]: the MIC50 is 2 µg/mL (≈ 6.53 µM) in the test with Cryptococcus neoformans; at least 8 µg/mL with Candida albicans [2]; at least 8 µg/mL against Candida albicans [3]; 0.5 µg/mL (≈ 1.63 µM) with Candida albicans [1]; at least 8 µg/mL against Candida albicans [4]; 0.5 µg/mL (≈ 1.63 µM) in the test on Candida tropicalis. Moreover, the MIC50 against Candida albicans [5] was at least 8 µg/mL; against Nakaseomyces glabratus it was 0.5 µg/mL (≈ 1.63 µM); with Candida albicans [6], at least 8 µg/mL; against Aspergillus fumigatus, at least 8 µg/mL. The same compound gave a pIC50 in test [7] of 7.01.
As for `Cc1c(CN2CCC(NCC(O)(Cn3ccnc3)c3ccc(Cl)cc3Cl)CC2)cccc1-c1ccccc1` (centres undefined), the MIC50 is 1 µg/mL (≈ 1.82 µM) with Cryptococcus neoformans; 2 µg/mL (≈ 3.64 µM) with Candida albicans [2]; 2 µg/mL (≈ 3.64 µM) in the test on Candida albicans [3]; 0.125 µg/mL (≈ 0.227 µM) against Candida albicans [1]; 4 µg/mL (≈ 7.28 µM) in the test with Candida albicans [4]; 0.5 µg/mL (≈ 0.91 µM) in the test on Candida tropicalis. The MIC50 is 2 µg/mL (≈ 3.64 µM) against Candida albicans [5], 0.5 µg/mL (≈ 0.91 µM) in the test with Nakaseomyces glabratus, 4 µg/mL (≈ 7.28 µM) in the test on Candida albicans [6] and 4 µg/mL (≈ 7.28 µM) in the test with Aspergillus fumigatus. For the same compound, the pIC50 in test [7] is 6.80.
With `Cc1c(CN2CCC(NCC(O)(Cn3cncn3)c3ccc(Cl)cc3Cl)CC2)cccc1-c1ccccc1` (centres undefined), the MIC50 was 2 µg/mL (≈ 3.63 µM) against Cryptococcus neoformans; 0.5 µg/mL (≈ 0.908 µM) with Candida albicans [1]; 2 µg/mL (≈ 3.63 µM) in the test with Candida tropicalis; 1 µg/mL (≈ 1.82 µM) against Nakaseomyces glabratus; 4 µg/mL (≈ 7.27 µM) against Aspergillus fumigatus.
Turning to `Cc1c(CN2CCCC(C(=O)NCC(O)(Cn3cncn3)c3ccc(Cl)cc3Cl)C2)cccc1-c1ccccc1` (centres undefined), the MIC50 in the test with Cryptococcus neoformans was 4 µg/mL (≈ 6.91 µM); in the test on Candida albicans [1], 0.5 µg/mL (≈ 0.864 µM); with Candida tropicalis it was 2 µg/mL (≈ 3.46 µM); in the test with Nakaseomyces glabratus it was 0.5 µg/mL (≈ 0.864 µM); against Aspergillus fumigatus, at least 8 µg/mL.
With `Cc1c(CN2CCC(NCC(O)(Cn3ccnc3)c3ccc(Cl)cc3)CC2)cccc1-c1ccccc1` (centres undefined), the MIC50 worked out at 2 µg/mL (≈ 3.88 µM) against Cryptococcus neoformans; 0.25 µg/mL (≈ 0.485 µM) in the test with Candida albicans [1]; 0.5 µg/mL (≈ 0.971 µM) with Candida tropicalis; 1 µg/mL (≈ 1.94 µM) with Nakaseomyces glabratus; 4 µg/mL (≈ 7.77 µM) in the test with Aspergillus fumigatus.
With `Cc1c(CN2CCC(CNCC(O)(Cn3ccnc3)c3ccc(Cl)cc3Cl)CC2)cccc1-c1ccccc1` (centres undefined), the MIC50 was determined as 4 µg/mL (≈ 7.1 µM) in the test on Cryptococcus neoformans; 1 µg/mL (≈ 1.77 µM) with Candida albicans [1]; 2 µg/mL (≈ 3.55 µM) against Candida tropicalis; 0.5 µg/mL (≈ 0.887 µM) in the test with Nakaseomyces glabratus; 4 µg/mL (≈ 7.1 µM) with Aspergillus fumigatus.
In the case of `Cc1c(CN2CCCC(C(=O)NCC(O)(Cn3cncn3)c3ccc(Cl)cc3)C2)cccc1-c1ccccc1` (centres undefined), the MIC50 with Cryptococcus neoformans is 1 µg/mL (≈ 1.84 µM); against Candida albicans [2], 4 µg/mL (≈ 7.35 µM); in the test with Candida albicans [3], 4 µg/mL (≈ 7.35 µM); in the test with Candida albicans [1], 0.25 µg/mL (≈ 0.459 µM); against Candida albicans [4] it was at least 8 µg/mL; against Candida tropicalis, 0.25 µg/mL (≈ 0.459 µM). Besides, the MIC50 against Candida albicans [5] is 2 µg/mL (≈ 3.68 µM); against Nakaseomyces glabratus, 0.5 µg/mL (≈ 0.919 µM); in the test on Candida albicans [6], at least 8 µg/mL; against Aspergillus fumigatus, 4 µg/mL (≈ 7.35 µM). In test [7], this compound gave a pIC50 of 6.59.
As to `Cc1c(CN2CCC(NCC(O)(Cn3cncn3)c3ccc(Cl)cc3)CC2)cccc1-c1ccccc1` (centres undefined), the MIC50 was found to be 0.5 µg/mL (≈ 0.969 µM) in the test on Cryptococcus neoformans; 2 µg/mL (≈ 3.88 µM) against Candida albicans [2]; 1 µg/mL (≈ 1.94 µM) in the test with Candida albicans [3]; 0.25 µg/mL (≈ 0.484 µM) against Candida albicans [1]; 2 µg/mL (≈ 3.88 µM) with Candida albicans [4]; 0.25 µg/mL (≈ 0.484 µM) in the test with Candida tropicalis. For the same compound, the MIC50 with Candida albicans [5] stood at 1 µg/mL (≈ 1.94 µM); in the test on Nakaseomyces glabratus it was 0.25 µg/mL (≈ 0.484 µM); against Candida albicans [6] it was 2 µg/mL (≈ 3.88 µM); with Aspergillus fumigatus it was 2 µg/mL (≈ 3.88 µM). This compound also had a pIC50 in test [7] of 6.95.
As for `Cc1c(CN2CCC(CNCC(O)(Cn3cncn3)c3ccc(Cl)cc3)CC2)cccc1-c1ccccc1` (centres undefined), the MIC50 against Cryptococcus neoformans is 4 µg/mL (≈ 7.55 µM); in the test on Candida albicans [1] it was 0.5 µg/mL (≈ 0.943 µM); against Candida tropicalis it was 0.5 µg/mL (≈ 0.943 µM); in the test on Nakaseomyces glabratus, 1 µg/mL (≈ 1.89 µM); with Aspergillus fumigatus, at least 8 µg/mL.
`O=C(NCC(Cc1ccccc1)Cn1cncn1)C1CCCN(Cc2ccc(-c3ccccc3)cc2)C1` (centres undefined): the MIC50 is 2 µg/mL (≈ 4.05 µM) in the test on Cryptococcus neoformans; 0.5 µg/mL (≈ 1.01 µM) in the test on Candida albicans [1]; 1 µg/mL (≈ 2.03 µM) in the test with Candida tropicalis; 2 µg/mL (≈ 4.05 µM) against Nakaseomyces glabratus; 4 µg/mL (≈ 8.1 µM) with Aspergillus fumigatus.
